The record followed here is ChEMBL document CHEMBL1125820, “Structure-activity relationship of mutagenic aromatic and heteroaromatic nitro compounds. Correlation with molecular orbital energies and hydrophobicity” (J Med Chem, 1991).

Data set [1] can be described thus: Partition coefficient (logP). Particulars: octanol/water; call rule not given here.
The test system of data set [2] is Salmonella typhimurium. Kind of data set: Mutagenic activity in an Ames test on Salmonella Typhimurium TA98; Activity is log of revertants/nmol. Type of data set: functional, Salmonella enterica subsp. enterica serovar Typhimurium. Details: scale not given here. A general note: The Ames test uses bacterial strains that need an amino acid and regain growth without it when mutated back.

Data set [3] has as its system Salmonella typhimurium. Nature of the data set: Mutagenic activity in Salmonella Typhimurium TA98 using Ames test; Activity is log of revertants / nmol; a= inactive. The format is functional, Salmonella enterica subsp. enterica serovar Typhimurium.

Molecules are shown by their SMILES.

In turn, `O=[N+]([O-])c1ccc2c(c1)CCc1ccccc1-2` yielded a log partition coefficient (logP) in data set [1] of 4.53. The same compound returned an Activity in the data set with Salmonella typhimurium [2] of 1.99.

As for `Nc1ccc([N+](=O)[O-])cc1O`, the lipophilicity (logP) in data set [1] is 1.36. In addition, in the data set with Salmonella typhimurium [2], the Activity is -2.4.

With `O=[N+]([O-])c1ccc2ccc3cc4c(c5ccc1c2c35)CCCC4`, in data set [1], the lipophilicity (logP) came out at 6.57. This compound also had an Activity in the data set on Salmonella typhimurium [2] of 0.9.

In data set [1], `O=[N+]([O-])c1c2c3c(ccc4cccc(c43)CC2)c2ccccc12` had a logP of 6.16. This compound also came in with an Activity in the data set with Salmonella typhimurium [2] of 0.3.

`CC(=O)Oc1ccc2c(c1)Cc1cc([N+](=O)[O-])ccc1-2` yielded a lipophilicity (logP) in data set [1] of 3.46. This compound also came in with an Activity in the data set with Salmonella typhimurium [2] of 1.86.

`O=[N+]([O-])c1cccc2ccccc12`: the logP in data set [1] is 3.19. In the data set on Salmonella typhimurium [2], the Activity was -0.61.

With `O=[N+]([O-])c1c2ccccc2cc2ccccc12`, in the data set with Salmonella typhimurium [3], the Activity is recorded as -0.95. The lipophilicity (logP) in data set [1] is 4.78.

In data set [1], `O=[N+]([O-])c1cc2c3c(cc([N+](=O)[O-])cc3c1)-c1ccccc1-2` gave a logP of 4.44. Besides, in the data set with Salmonella typhimurium [2], the Activity was found to be 2.32.

In the case of `CN1Cc2cccc([N+](=O)[O-])c2N1`, the logP in data set [1] was 1.77. Besides, the Activity in the data set on Salmonella typhimurium [2] worked out at 0.23.

On to `O=[N+]([O-])c1ccc2c3c(cccc13)C=C2`, for which, in data set [1], the logP came out at 3.36. In the data set with Salmonella typhimurium [2], the Activity was determined as 1.91.

The compound `O=[N+]([O-])c1ccc2cc3ccccc3cc2c1` yielded a lipophilicity (logP) in data set [1] of 4.23. In the data set on Salmonella typhimurium [2], this compound displayed an Activity of 2.95.

In data set [1], `O=[N+]([O-])c1cc(O)c2ccc3cccc4ccc1c2c34` showed a lipophilicity (logP) of 4.66. In addition, the Activity in the data set with Salmonella typhimurium [2] is reported as 3.87.

Compound `O=[N+]([O-])C1=CC2Nc3cc([N+](=O)[O-])ccc3NC2C=C1` (stereo unspecified) had a logP in data set [1] of 2.29. Further, the Activity in the data set with Salmonella typhimurium [2] turned out to be 2.75.

Compound `N#Cc1ccc2c(c1)Cc1cc([N+](=O)[O-])ccc1-2` came in with a lipophilicity (logP) in data set [1] of 3.4. In the data set on Salmonella typhimurium [2], the Activity is recorded as 2.51.

`O=[N+]([O-])c1ccc2oc3ccccc3c2c1`: in data set [1], the lipophilicity (logP) is 3.83. Besides, the Activity with Salmonella typhimurium [2] is reported as 1.64.

In data set [1], `O=[N+]([O-])c1cc2c3c(ccc4cc([N+](=O)[O-])cc(c43)CC2)c1` yielded a logP of 4.73. In the data set with Salmonella typhimurium [2], this compound registered an Activity of 4.25.

As for `Cc1ccc2cccc([N+](=O)[O-])c2n1`, in data set [1], the lipophilicity (logP) came out at 1.99. Moreover, the Activity with Salmonella typhimurium [2] was -2.7.

For the compound `O=[N+]([O-])c1cc2ccccc2c2ccc3ccccc3c12`, the logP in data set [1] was 5.41. Besides, the Activity with Salmonella typhimurium [2] was -0.22.

With `O=[N+]([O-])C1=Cc2c3ccc4ccccc4c3cc3cccc1c23`, the lipophilicity (logP) in data set [1] is 5.07. In addition, the Activity in the data set with Salmonella typhimurium [2] was 0.86.

`O=C(/C=C/c1ccccc1)c1ccc([N+](=O)[O-])cc1` registered a logP in data set [1] of 2.83. Further, in the data set on Salmonella typhimurium [2], the Activity is on record as -1.15.

With `O=[N+]([O-])c1ccc2ccc3c4c(cc5ccc1c2c53)C=CC(O)C4O` (stereo unspecified), the logP in data set [1] is 3.01. Moreover, the Activity in the data set on Salmonella typhimurium [2] is on record as 2.8.

In the case of `O=[N+]([O-])c1ccc2ccc3c(O)ccc4ccc1c2c43`, in data set [1], the log partition coefficient (logP) is 4.19. For the same compound, the Activity in the data set on Salmonella typhimurium [2] stood at 1.34.

In the case of `O=[N+]([O-])c1c(Cl)cc2c(c1Cl)Oc1cc(Cl)c(Cl)cc1O2`, the log partition coefficient (logP) in data set [1] amounted to 7.13. Besides, the Activity in the data set on Salmonella typhimurium [2] is recorded as -1.4.

As for `O=[N+]([O-])c1nc2ccccc2[nH]1`, in data set [1], the logP came to 1.59. This compound also came in with an Activity in the data set with Salmonella typhimurium [2] of 0.

In data set [1], `Nc1cccc(-c2cccc([N+](=O)[O-])c2)c1` displayed a log partition coefficient (logP) of 2.68. Besides, in the data set with Salmonella typhimurium [2], the Activity is recorded as -1.7.

In turn, `Cn1ncc2cccc([N+](=O)[O-])c21` returned a lipophilicity (logP) in data set [1] of 1.77. For the same compound, the Activity in the data set with Salmonella typhimurium [2] is listed as -1.

With `O=[N+]([O-])c1cc(Cl)ccc1Cl`, the log partition coefficient (logP) in data set [1] was determined as 2.9. Further, the Activity with Salmonella typhimurium [2] is listed as -1.54.

For the compound `Nc1ccc([N+](=O)[O-])cc1N`, the log partition coefficient (logP) in data set [1] was 0.88. The compound further returned an Activity in the data set with Salmonella typhimurium [2] of 0.63.

`O=[N+]([O-])c1ccc2c3c(c4cccc5ccc1c2c54)CCCC3` gave a logP in data set [1] of 6.26. Moreover, in the data set on Salmonella typhimurium [2], the Activity is listed as 0.78.

In turn, `O=[N+]([O-])c1ccc2ccc3cccc4ccc1c2c34` [1-NITROPYRENE] registered a lipophilicity (logP) in data set [1] of 4.69. In the data set on Salmonella typhimurium [2], this compound came in with an Activity of 2.78.

Turning to `COc1ccccc1[N+](=O)[O-]` [2-NITROANISOLE], the logP in data set [1] was found to be 1.73. Besides, the Activity in the data set with Salmonella typhimurium [2] is recorded as -2.7.

Consider `O=[N+]([O-])c1ccc2c(c1)Cc1ccccc1-2` [2-NITROFLUORENE], for which, in data set [1], the logP is 3.37. Moreover, the Activity in the data set with Salmonella typhimurium [2] was 1.43.

As for `Nc1ccc(Cl)cc1[N+](=O)[O-]` [4-CHLORO-2-NITROANILINE], the logP in data set [1] is 2.72. Besides, the Activity with Salmonella typhimurium [2] was -2.

As to `O=C1Nc2ccc([N+](=O)[O-])cc2C1=O` [5-NITROISATIN], the logP in data set [1] came to 0.47. The Activity in the data set with Salmonella typhimurium [2] is -0.94.

On to `O=[N+]([O-])c1cccc2cn[nH]c12` [7-NITROINDAZOLE], for which the log partition coefficient (logP) in data set [1] turned out to be 1.75. In the data set with Salmonella typhimurium [2], this compound showed an Activity of 0.11.

Regarding `O=[N+]([O-])c1ccc(Cl)c([N+](=O)[O-])c1` [DINITROCHLOROBENZENE], the logP in data set [1] amounted to 2.17. In the data set with Salmonella typhimurium [2], the Activity was determined as 0.3.

On to `O=C1NCCN1c1ncc([N+](=O)[O-])s1` [NIRIDAZOLE], for which, in data set [1], the logP was found to be 0.95. For the same compound, the Activity with Salmonella typhimurium [2] is recorded as 2.59.

As for `NC(=O)N/N=C/c1ccc([N+](=O)[O-])o1` [NITROFURAZONE], the logP in data set [1] worked out at 0.23. This compound also had an Activity in the data set with Salmonella typhimurium [2] of 1.02.

By logP is commonly meant a log measure of how a compound divides between an organic and an aqueous phase.
